In patent publication US20250099455A1, “TREATMENT FOR CONGESTIVE HEART FAILURE” (FibroGen, Inc., priority 2022, published 2025):
“Also recorded” adds a separate entry of the source. Like-named read-outs stand apart in the source and are kept apart here.

Tests used:
PHD2 = PHD2 (Homo sapiens (Human), UniProt Q9GZT9); test: HIF-PH assay (14CO2 capture), PHD2; type: biochemical
Description: The selectivity profile for the compound of Formula I can be determined using, for example, any assay familiar and commonly accessible to those skilled in the art, e.g., the following HIF-PH assay. Ketoglutaric acid α-[1-^14C]-sodium salt, alpha-ketoglutaric acid sodium salt, and HPLC purified peptide may be obtained from commercial sources, e.g., Perkin-Elmer (Wellesley MA), Sigma-Aldrich, and SynPep Corp. (Dublin CA), respectively. Peptides for use in the assay may be fragments of HIFα as described above or as disclosed in International Publication WO 2005/118836, incorporated by reference herein. HIF-PH, e.g., PHD1 (EGLN2) or PHD2 (EGLN1), can be expressed in, e.g., insect Hi5 cells, and partially purified, e.g., through a SP ion exchange chromatography column. Enzyme activity is determined by capturing ^14CO2 using an assay described by Kivirikko and Myllyla (1982, Methods Enzymol. 82:245-304). […] The peptide-dependent percent turnover is calculated by subtracting percent turnover in the absence of peptide from percent turnover in the presence of substrate peptide. Percent inhibition and IC50 are calculated using peptide-dependent percent turnover at given inhibitor concentrations. […] IC50 of test compound for PHD1 and for PHD2 and/or PHD3 can be readily determined using the above method, and used to assess the selectivity of the compound for inhibition of PHD1.

[1] = system: congestive heart failure subsequent to myocardial infarction; test: Rat CHF subsequent to myocardial infarction, delayed treatment (Example 2); type: in vivo
Experimental: The effect of delayed treatment with the compound of Formula I on cardiac function in congestive heart failure (CHF) was studied by inducing CHF subsequent to MI. Four groups of rats (n=11-12) were subjected to MI by 30 minute ligation of the left coronary artery followed by reperfusion. In a sham group, rats underwent a similar surgical procedure except that the left coronary artery was not occluded. Cardiac function was measured in one group at 28 days post-MI (Baseline). In the remaining MI groups, dosing with vehicle or test article was initiated on Day 28. Rats were orally dosed every other day with vehicle, 6 mg/kg or 20 mg/kg compound from day 28 until day 54 post-MI. At 56 days post-MI, cardiac function, heart weight and complete blood count (CBC) were measured. • Male Sprague Dawley rats • Ligation of left coronary artery for 30 minutes followed by reperfusion • Post-ligation recovery for 28 days • Cardiac function 28 days after ischemia-reperfusion using a Millar pressure-volume catheter inserted in the left ventricle via the carotid artery • Record pressure-volume loops over several cardiac cycles and derived cardiac function parameters

[2] = system: congestive heart failure subsequent to myocardial infarction; test: Acute myocardial ischemia induced HF, duration of administration (regimens); type: in vivo, rat
[3] = system: diastolic dysfunction HF in obese ZSF1 rats; test: ZSF1 model of heart failure with preserved ejection fraction (HFpEF), monotherapy; type: in vivo, rat
Description: This study determined the effects of the compound of Formula I on cardiac function after 16 weeks of treatment in male obese ZSF1 rats.
Lean ZSF1 rats were used as controls.
The obese ZSF1 rat was developed by crossing diabetic Zucker fatty rats with spontaneously hypertensive heart failure (SHHF) rats
• Hypertension • Impaired renal function • Obesity • Type 2 diabetes • Insulin resistance, hyperinsulinemia • Hypertriglyceridemia, • Hypercholesterolemia

global ischemia = test: Acute cardioprotection: left ventricular function and coronary flow after global ischemia
[4] = system: myocardial ischemia-induced heart failure (HFrEF); test: Rat model of ischemic HFrEF, Formula I and empagliflozin alone and in combination; type: in vivo
Experimental: • Male Sprague Dawley rats • Ligation of left coronary artery for 30 minutes followed by reperfusion • Post-ligation recovery for 28 days • Cardiac function 28 days after ischemia-reperfusion using a Millar pressure-volume catheter inserted in the left ventricle via the carotid artery • Record pressure-volume loops over several cardiac cycles and derived cardiac function parameters A) Rat Model of Ischemic Heart Failure with Reduced Ejection Fraction (HFrEF)

[5] = system: coronary artery (isolated heart preparation); test: Coronary artery vasodilation in an isolated heart preparation
PK profile in monkeys = type: in vivo, monkey; conditions: for bioavailability: po
[6] = delayed administration, 6, 20 mg/kg QOD, 4 weeks
[7] = delayed: 6 or 20 mg/kg oral QOD day 28-54 post-MI, 56 days post-MI
[8] = delayed: 6 or 20 mg/kg oral QOD day 28-54 post-MI, 56 days post-MI, vs vehicle
[9] = 20 mg/kg daily for 7, 14 or 28 days
[10] = both sexes, monkey, in vivo, oral, monkeys, males and females
[11] = both sexes, monkey, in vivo, monkeys, males and females
[12] = in vivo, monkey, PK summary table

PHD2, sequence (Q9GZT9 whole entry, species assumed, the tested form may be a part): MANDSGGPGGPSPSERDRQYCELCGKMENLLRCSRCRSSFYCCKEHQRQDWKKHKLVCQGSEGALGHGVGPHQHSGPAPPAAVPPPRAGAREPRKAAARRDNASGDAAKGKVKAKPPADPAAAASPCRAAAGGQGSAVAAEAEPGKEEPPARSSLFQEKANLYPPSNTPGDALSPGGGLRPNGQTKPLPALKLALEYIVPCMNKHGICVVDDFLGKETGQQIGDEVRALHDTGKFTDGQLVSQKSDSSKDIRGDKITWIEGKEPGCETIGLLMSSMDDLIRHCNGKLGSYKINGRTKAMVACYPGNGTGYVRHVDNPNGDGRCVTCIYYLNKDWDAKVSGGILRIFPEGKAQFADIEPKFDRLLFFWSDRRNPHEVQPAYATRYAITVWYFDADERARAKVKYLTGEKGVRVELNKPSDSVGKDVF

Question: With `CC(C)(CC(=O)O)NC(=O)c1nc(C#N)c2cc(Oc3ccccc3)ccc2c1O` [Formula I, 3-[(1-cyano-4-hydroxy-7-phenoxy-isoquinoline-3-carbonyl)-amino]-3-methyl-butyric acid] as the compound, how does the IC50 (PHD2; Table 1) read?
Answer: The IC50 was 20.4 µM.

Question: And the IC50 (PHD2; additional experiment, Table 1A)?
Answer: Its IC50 is 16.9 µM.

Question: What about the diastolic function [1, 6] of the same compound?
Answer: The diastolic function was “Some improvement in diastolic”.

Question: What about the systolic function [1, 6] of the same compound?
Answer: Its systolic function is “improved systolic function (ejection”.

Question: What about the cardiac hypertrophy [1, 7] of the same compound?
Answer: Its cardiac hypertrophy is “improved; also recorded: Some improvement in diastolic”.

Question: What about the dPdtmax [1, 7] of the same compound?
Answer: Its dPdtmax is “improved”.

Question: What about the end-diastolic volume [1, 7] of the same compound?
Answer: The end-diastolic volume was “improved”.

Question: And the hematocrit [1, 7]?
Answer: Its hematocrit is “no significant effect; also recorded: no erythropoietic effect”.

Question: What about the hemoglobin level [1, 7] of the same compound?
Answer: The hemoglobin level was “no significant effect; also recorded: no erythropoietic effect”.

Question: What about the relaxation time [1, 7] of the same compound?
Answer: The relaxation time was “improved; also recorded: improvement”.

Question: What about the ejection fraction [1, 8] of the same compound?
Answer: Its ejection fraction is “significantly improved; also recorded: improvement; also recorded: fraction improved at both doses)”.

Question: And the end-systolic volume [1, 8]?
Answer: The end-systolic volume was “significantly improved; also recorded: improvement”.

Question: What about the cardiac contractility ([1]; started 28 days after MI, every other day for 28 days) of the same compound?
Answer: The cardiac contractility was “improvement”.

Question: And the collagen deposition [2, 9]?
Answer: Its collagen deposition is “All regimens reduced collagen”.

Question: What about the diastolic function [2, 9] of the same compound?
Answer: Its diastolic function is 14 and 28 days regimens improved.

Question: And the systolic function [2, 9]?
Answer: The systolic function was 14 and 28 days regimens improved.

Question: And the cardiac hypertrophy ([2]; 20 mg/kg daily, 14 and 28 days regimens)?
Answer: Its cardiac hypertrophy is “reduced cardiac hypertrophy”.

Question: And the hypertension ([3]; 20 mg/kg QOD, 16 weeks)?
Answer: Its hypertension is “Significant stabilization of”.

Question: What about the diastolic function ([3]; 20 mg/kg QOD, 16 weeks, end-diastolic pressure, left atrium weight, relaxation time, dp/dt minimum) of the same compound?
Answer: Its diastolic function is “improved; also recorded: Significant improvement in”.

Question: What about the “blood pressure (mean, diastolic, systolic)” value ([3]; monotherapy) of the same compound?
Answer: The value was “normalized”.

Question: And the coronary flow (global ischemia)?
Answer: The coronary flow was “improved”.

Question: And the left ventricular function (global ischemia)?
Answer: Its left ventricular function is “improved”.

Question: And the “left ventricular function (LVDP)” value (global ischemia)?
Answer: The value was “improved”.

Question: What about the “left ventricular function (LVEP)” value (global ischemia) of the same compound?
Answer: The value was “improved”.

Question: What about the “improvement in ejection fraction” value [4] of the same compound?
Answer: The value was about 30%.

Question: And the “improvement in end systolic volume” value [4]?
Answer: The value was about 30%.

Question: What about the “coronary artery vasodilation (coronary perfusion pressure, coronary resistance)” value [5] of the same compound?
Answer: The value was “induced”.

Question: And the Cmax (PK profile in monkeys; [10])?
Answer: Its Cmax is 10.9 ± 3.7 µg/mL.

Question: What about the Tmax (PK profile in monkeys; [10]) of the same compound?
Answer: The Tmax was 2.6 ± 1.6 h.

Question: And the AUC(0-inf) (PK profile in monkeys; [11])?
Answer: The AUC(0-inf) was 180 ± 68 µg·h/mL.

Question: And the AUC(0-t) (PK profile in monkeys; [11])?
Answer: Its AUC(0-t) is 176 ± 67 µg·h/mL.

Question: What about the clearance (PK profile in monkeys; [11]) of the same compound?
Answer: The clearance was 0.026 L/h/kg.

Question: And the half-life (PK profile in monkeys; [11])?
Answer: The half-life was 34.6 ± 9.5 h.

Question: And the Vd (PK profile in monkeys; both sexes, monkey, in vivo, monkeys, males and females, read-out: Vss)?
Answer: The Vd was 0.184 ± 0.028 L/kg.

Question: And the Tmax (PK profile in monkeys; in vivo, oral, monkey, PK summary table)?
Answer: The Tmax was about 1 h.

Question: What about the clearance (PK profile in monkeys; [12]) of the same compound?
Answer: Its clearance is 0.031 to 0.04 L/h/kg.

Question: And the half-life (PK profile in monkeys; [12])?
Answer: Its half-life is 22 to 36 h.

Question: What about the “Systemic clearance compared with other species” value (PK profile in monkeys; monkey vs rats (slower than CL in dogs)) of the same compound?
Answer: The value was “comparable to those in rats”.

Question: What about the Dose proportional (PK profile in monkeys; monkey, 10-60 mg/kg) of the same compound?
Answer: The Dose proportional was “Yes”.

Question: What about the “Accumulation (after multiple dosing)” value (PK profile in monkeys; monkey, daily dosing, compared to Day 1 exposure) of the same compound?
Answer: The value was 2-3 fold higher.

Question: What about the bioavailability (PK profile in monkeys; monkey, in vivo, monkeys, read-out: Oral bioavailability (Oral % F)) of the same compound?
Answer: The bioavailability was 36 to 48%.

Question: And the bioavailability (PK profile in monkeys; monkey, in vivo, monkeys, read-out: Oral bioavailability, group mean)?
Answer: Its bioavailability is 42 to 47%.

Question: And the Dose proportional (PK profile in monkeys; monkey, up to 150 mg/kg)?
Answer: Its Dose proportional is “less than dose”.

Question: And the “Dose proportionality of compound exposure” value (PK profile in monkeys; monkeys)?
Answer: Its value is “increased dose proportionally”.

Question: And the “Vss relative to plasma volume” value (PK profile in monkeys; monkeys)?
Answer: The value was “higher than plasma volume”.

Question: What about the “Sex difference in PK” value (PK profile in monkeys; monkeys, compound exposure or key PK parameters) of the same compound?
Answer: The value was “no marked sex difference and No”.
